Reference: patent publication EP0325187B1, “4-alkyl-1, 4-dihydropyridines with PAF-antagonist activity” (ALTER, S.A., priority 1988, dated 1989)

Tests used:
RABBIT PLATELETS [1] = assay: Aggregation of washed platelets induced by PAF (turbidimetric, lumiaggregometer); format: cell-based, rabbits (male, albino, New Zealand); conditions: Oryctolagus cuniculus, Platelet; compound 10 µM; 1-PAF 1.92 nM; pre-incubation 5 minutes; average of six experiments in triplicate
Description: (§1) • 1. STUDIES ON WASHED PLATELETS • 1.1.Aggregation The suspensions of washed platelets were obtained from the blood of rabbits (male, albino, New Zealand) anticoagulated with a citric acid-dextrose solution in the proportion 1:6 (v:v.) The platelet rich plasma (PRP) was obtained by centrifuging the blood samples at 100xg for 10 minutes and the platelet suspensions by centrifuging the PRP at 1,800xg for 15 minutes at 4° C. The pellet thus obtained was washed twice with Tyrode buffer containing citric acid, PGE₁ and apirase, pH 6.5. The platelets thus washed were finally resuspended in Hepes-Tyrode buffer, pH 7.35, supplemented with bovine albumin serum at 0.35 %; Ca⁺⁺2 mM. The final concentration of platelets was adjusted to 300,000 platelets/µl. The aggregation was measured turbidimetrically using a lumiaggregometer (Chrono-Log Co., Haventon, PA, USA) at 37° C under stirring at 1,100 r.p.m. The study was also carried out on aliquots of PRP pre-incubated with the compounds under study at 37° C for 5 minutes. The concentration of the antagonists were in all cases 10 µM and aggregation was induced by adding L-PAF diluted in 5 µl of Hepes buffer/albumin, with a final concentration 1.9 x 10⁻⁹M. • 1.2. Release reaction The platelet secretion was measured in the presence of luciferin/luciferase with ATP release in accord with the method described by Feinman et al. (1977.) • 2. STUDIES ON ANESTHETIZED RATS Hypotension induced by an intravenous injection of PAF-aceter. Male Sprague-Dawley rats anesthetized with pentobarbital (50 mg/kg., intraperitoneally) were used.

RABBIT PLATELETS [2] = assay: Platelet release reaction (ATP release, luciferin/luciferase) induced by PAF; format: cell-based, rabbits (male, albino, New Zealand); conditions: Oryctolagus cuniculus, read-out: % […] REACTION, compound 10 µM, 1-PAF 1.92 nM, pre-incubation 5 minutes, average of six experiments in triplicate
Description: as §1

Compound | inhibition at 10 µM (RABBIT PLATELETS [1]) [%] | inhibition at 10 µM (RABBIT PLATELETS [2]) [%]
CCOC(=O)C1=C(C)NC(C)=C(C(=O)OCCSC)C1C (stereo not shown) [Example 3, 2,6-(methylthio)ethyl-2,6 dimethyl-5-ethoxycarbonyl-4-methyl-1,4-dihydropyridin-3-carboxylate] | 21 | 78
COC(=O)C1=C(C)NC(C)=C(C(=O)OCCSC)C1C (stereo not shown) [Example 2, 2-(methylthio)ethyl-2,6-dimethyl-4-methyl-5-methoxycarbonyl-1,4-dihydropyridin-3-carboxylate] | 26 | 75
COC(=O)C1=C(C)NC(C)=C(C(=O)OCCSc2ccccc2)C1C (stereo not shown) [Example 12, 2-(phenylthio)ethyl-2,6-dimethyl 4-methyl-5-methoxycarbonyl-1,4-dihydropyridin-3-carboxylate] | 100 | 100
CCSCCOC(=O)C1=C(C)NC(C)=C(C(=O)OC)C1C (stereo not shown) [Example 1, 2-(ethylthio)ethyl-2,6-dimethyl-4-methyl-5-methoxycarbonyl-1,4-dihydropyridin-3-carboxylate] | 44 | 96
CCCC1C(C(=O)OCC)=C(C)NC(C)=C1C(=O)OCCSCC (stereo not shown) [Example 8, 2-(ethylthio)ethyl-2,6-dimethyl-5-ethoxycarbonyl-4-n-propyl-1,4-dihydropyridin-3-carboxylate] | 30 | 69
CC1=C(C(=O)OCCSc2ccccc2)C(C)C(C(=O)OCC2CCCO2)=C(C)N1 (stereo not shown) [Example 10, 2-(phenylthio)ethyl-2,6-dimethyl-4-methyl 5-(2-tetrahydrofurfuryloxycarbonyl)-1,4-dihydropyridin-3-carboxylate] | 11 | 49
CCOC(=O)C1=C(C)NC(C)=C(C(=O)OCCSC)C1CC (stereo not shown) [Example 6, 2-(methylthio)ethyl-2,6-dimethyl-4-ethyl-5-ethoxycarbonyl-1,4-dihydropyridin-3-carboxylate] | 32 | 89
CCOC(=O)C1=C(C)NC(C)=C(C(=O)OCCSCC)C1C (stereo not shown) [Example 4, 2-(ethylthio)ethyl-2,6-dimethyl-5-ethoxycarbonyl-4-methyl-1,4-dihydropyridin-3-carboxylate] | 32 | 89
CCCC1C(C(=O)OCC)=C(C)NC(C)=C1C(=O)OCCSC (stereo not shown) [Example 7, 2-(methylthio)ethyl-2,6-dimethyl-5-ethoxycarbonyl-4-n-propyl-1,4-dihydropyridin-3-carboxylate] | 14 | 50
CCOC(=O)C1=C(C)NC(C)=C(C(=O)OCCSc2ccccc2)C1C (stereo not shown) [Example 9, 2-(phenylthio)ethyl-2,6-dimethyl-5-ethoxycarbonyl-4-methyl-1,4-dihydropyridin-3-carboxylate] | 100 | 100
CC1=C(C(=O)OCCSc2ccccc2)C(C)C(C(=O)OC(C)C)=C(C)N1 (stereo not shown) [Example 11, 2-(phenylthio)ethyl-2,6-dimethyl-5-isopropoxycarbonyl-4-methyl-1,4-dihydropyridin-3-carboxylate] | 33 | 89
